Assay results from patent publication US7125871B2, “Excitatory amino acid receptor modulators” (Eli Lilly and Company, priority 2000, dated 2006).

Target: T1, mGluR2 (Homo sapiens, UniProt Q14416)
T1 construct: expressed in transfected cells
Assay: reversal of [3H] LY341495 binding at mGluR2
Details: [3H] LY341495 radioligand; cells expressing human mGluR subtypes
Description: (D. D. Schoepp, et al., Neuropharmacol., 1996, 35, 1661–1672 and 1997, 36, 111).
LY341495 binding with a Ki of less than 30,000 nM at […]. […] (LY341495 is described in Ornstein et al., J. Med. Chem., 1998, 41, 346–357 and J. Med. Chem., 1998, 41, 358 to 378).

T1 sequence (Q14416 19-872): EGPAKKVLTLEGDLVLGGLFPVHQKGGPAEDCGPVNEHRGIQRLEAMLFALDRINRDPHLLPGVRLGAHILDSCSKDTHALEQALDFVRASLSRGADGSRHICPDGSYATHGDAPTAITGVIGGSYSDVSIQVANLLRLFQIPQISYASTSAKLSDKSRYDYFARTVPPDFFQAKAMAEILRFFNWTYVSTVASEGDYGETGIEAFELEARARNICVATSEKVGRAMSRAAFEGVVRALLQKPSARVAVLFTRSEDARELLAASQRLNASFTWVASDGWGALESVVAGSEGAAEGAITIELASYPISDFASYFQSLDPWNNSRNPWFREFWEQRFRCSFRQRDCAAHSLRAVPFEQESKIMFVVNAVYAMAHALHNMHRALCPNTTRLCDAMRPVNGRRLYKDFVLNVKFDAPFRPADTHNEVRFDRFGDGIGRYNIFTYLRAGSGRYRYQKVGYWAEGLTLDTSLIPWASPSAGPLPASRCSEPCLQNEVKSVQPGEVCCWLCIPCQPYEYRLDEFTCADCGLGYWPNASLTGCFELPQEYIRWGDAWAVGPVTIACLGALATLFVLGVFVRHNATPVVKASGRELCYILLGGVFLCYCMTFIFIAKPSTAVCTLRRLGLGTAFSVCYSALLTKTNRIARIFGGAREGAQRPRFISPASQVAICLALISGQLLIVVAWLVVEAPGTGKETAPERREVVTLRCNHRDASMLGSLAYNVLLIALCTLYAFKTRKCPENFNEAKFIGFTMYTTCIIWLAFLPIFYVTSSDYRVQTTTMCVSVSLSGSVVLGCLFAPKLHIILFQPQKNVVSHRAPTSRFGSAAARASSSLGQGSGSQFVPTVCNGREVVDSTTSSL

Question: For `N[C@H](C(=O)O)[C@@H]1[C@@H](C(=O)O)[C@@H]1C(=O)NCc1ccccc1` (racemic) [Example 1, (2SR, 1′SR, 2′RS, 3′RS)-2-[2′-carboxy-3′-(phenylmethylaminocarbonyl)cyclopropyl]glycine], which Ki is on record?
Answer: 3.42 µM
